“And” between values parts separate entries of the source, which are not always exact repeats. Equal values may be shown once.
Experiment: Pharmacokinetic studies in mice (intravenous and intramuscular, plasma, HPLC-MS/MS)
Type: in vivo, BALB/c mice
Set-up: AUClast / AUCall / AUCINF_obs / AUCINF_pred / AUCINFobs: concentration or dose not given beside the values; Tlast / Clast / AUMClast / AUMCINF_obs / AUMCINF_pred / Lambda_z / HL_Lambda_z / Cl_obs / Cl_pred / Cl_F_obs / Tlag / Cl_F_pred: unit not given here
Details: for plasma concentration, AV: average of mice; for plasma concentration: individual mice 1-8
Experimental: Pharmacokinetic experimental procedures of compound 16C were measured according to previous reports with some modifications ([Wang et al., 2022]). In brief, BALB/c mice were divided into two groups of eight mice each; one group was injected intravenously and the other was injected intramuscularly with compound 16C at a dose of 10 mg/kg. The dose was based on previous studies of novel pleuromutilin derivatives ([Jin et al., 2019]; [Wang et al., 2022]). Meanwhile, the dose of tiamulin approved by the European Union for intramuscular administration is 10–20 mg/kg ([EMA, 1999]). The volume of the injection was 0.1 mL/10 g. The compound 16C formulation was a filtered solution in 5% DMSO, 5% Tween-80, and 90% normal saline. Blood was obtained from eight mice via the ocular venous plexus at 0.083, 0.167, 0.25, 0.334, 0.5, 0.75, 1, 1.5, 2, 3, 4, 6, 8, and 12 h following tail intravenous or thigh Intramuscular injection. A glass capillary with a diameter of 0.3 mm was inserted into the outer canthus of the mouse, and 200 μL blood was collected using a 1.5 mL anticoagulant centrifuge tube. The blood was centrifuged at 3,000 rpm for 10 min to obtain plasma. 100 μL of plasma was aspirated for drug concentration detection, and eight parallel samples from different mice were obtained at each time point.
All pharmacokinetic experimental samples and method validation samples were added with 4 times the volume of acetonitrile and shaken for 1 min, centrifuged at high speed at 13,000× g for 10 min, and the supernatants were taken and filtered to detect the drug concentration. Some samples with high concentrations were diluted to the linear range prior to analysis.
The extracted samples were analyzed using a high-performance liquid chromatography-tandem mass spectrometry (HPLC-MS/MS) system (Agilent, Santa Clara, CA, United States) 1200 HPLC and Applied Biosystems (Waltham, MA, United States) API 4000 mass spectrometer). HPLC-MS/MS analysis using a Zorbax Eclipse XDB-C18 (4.6 × 50 mm, 3.5 μm) column (Agilent). The mobile phase A (acetonitrile) and B (water) were applied as a gradient as follows: 0–3 min: 15%–95% A and maintain from 3 min to 5 min at 95% A. 5–5.1 min: 95%–15% A and maintain from 5.1 to 10 min at 15% A. Flow rate: 500 μL/min; column temperature: 30°C and injection volume: 4 μL. The electrospray ionization (ESI) source of the mass spectrometer was operated in […], with the following ion source parameters: ion spray voltage 4,500 V, collision gas 7 psi, ion source gas 1 55 psi, ion source gas 2 40 psi, curtain gas 20 psi, source temperature 600°C. The precursor ion m/z of Compound 16C was 633.3, and the product ions m/z were 272.0 (quantifier) 286.9 and 313.0. Declustering potentials (DP) were 140, 140, and 144 V, respectively; entrance potential (EP) was 10 V; collision energy (CE) was 55, 46, and 15 V, respectively; and collision cell exit potential (CXP) was 14 V.
[…] Pharmacokinetic parameters include time to maximum concentration (Tmax), maximum concentration (Cmax), the area under the plasma concentration–time curve (AUC0-∞), clearance rate (CL), the apparent volume of distribution (Vd), bioavailability (F), elimination half-life (T1/2kel) and absorption half-life (T1/2ka).

With `C=C[C@]1(C)C[C@@H](OC(=O)CSc2ccc(NC(=O)Cc3ccc([N+](=O)[O-])cc3)cc2)[C@]2(C)[C@H](C)CC[C@]3(CCC(=O)[C@H]32)[C@@H](C)[C@@H]1O` the “plasma concentration, AV” value (IM, 0.083h) was 409.1 ng/mL, the “plasma concentration, AV” value (IM, 0.17h) was 470.8 ng/mL and the “plasma concentration, AV” value (IM, 0.25h) was 496 ng/mL. For the same compound, the “plasma concentration, AV” value (IM, 0.33h) was 490 ng/mL, the “plasma concentration, AV” value (IM, 0.5h) was 449.1 ng/mL and the “plasma concentration, AV” value (IM, 0.75h) was 404.2 ng/mL. For the same compound, the “plasma concentration, AV” value (IM, 1h) was 281.2 ng/mL, the “plasma concentration, AV” value (IM, 1.5h) was 246.4 ng/mL and the plasma concentration (IM, 1.5h) was 189 ng/mL and 266 ng/mL and 253 ng/mL and 291 ng/mL and 290 ng/mL and 328 ng/mL and 158 ng/mL and 196 ng/mL. For the same compound, the “plasma concentration, AV” value (IM, 2h) was 158.4 ng/mL, the plasma concentration (IM, 2h) was 100 ng/mL and 171 ng/mL and 124 ng/mL and 153 ng/mL and 195 ng/mL and 254 ng/mL and 139 ng/mL and 131 ng/mL and the “plasma concentration, AV” value (IM, 3h) was 123.2 ng/mL. For the same compound, the plasma concentration (IM, 3h) was 92.5 ng/mL and 183 ng/mL and 129 ng/mL and 115 ng/mL and 122 ng/mL and 146 ng/mL and 111 ng/mL and 87 ng/mL, the “plasma concentration, AV” value (IM, 4h) was 84.54 ng/mL and the plasma concentration (IM, 4h) was 67.6 ng/mL and 99.6 ng/mL and 79.9 ng/mL and 104 ng/mL and 84.5 ng/mL and 117 ng/mL and 51.6 ng/mL and 72.1 ng/mL. The “plasma concentration, AV” value (IM, 6h) was 37.03 ng/mL, the plasma concentration (IM, 6h) was 27 ng/mL and 51.8 ng/mL and 31.4 ng/mL and 43.1 ng/mL and 35.8 ng/mL and 43.3 ng/mL and 20 ng/mL and 43.8 ng/mL and the “plasma concentration, AV” value (IM, 8h) was 18.45 ng/mL. The plasma concentration (IM, 8h) was 13.1 ng/mL and 25.3 ng/mL and 16.7 ng/mL and 19.2 ng/mL and 15 ng/mL and 22.7 ng/mL and 13 ng/mL and 22.6 ng/mL, the “plasma concentration, AV” value (IM, 12h) was 6.302 ng/mL and the plasma concentration (IM, 12h) was 1.85 ng/mL and 6.51 ng/mL and 5.87 ng/mL and 6.37 ng/mL and 4.83 ng/mL and 6.04 ng/mL and 9.7 ng/mL and 9.25 ng/mL. For the same compound, the AUCINF_obs (IM, individual mice) was 1087.9 and 805.258 and 1373.07 and 1092.7 and 1076.67 and 1204.87 and 1450.76 and 1023.1, the AUCINF_pred (IM, individual mice) was 1087.68 and 805.26 and 1373.07 and 1092.68 and 1076.58 and 1204.84 and 1450.76 and 1021.5 and the AUC_%Extrap_obs (IM, individual mice) was 3.4748% and 0.4887% and 1.3883% and 1.9994% and 1.9823% and 1.3449% and 1.2619% and 9.501%. The AUC_%Extrap_pred (IM, individual mice) was 3.4549% and 0.489% and 1.388% and 1.9971% and 1.9741% and 1.3423% and 1.262% and 9.3589%, the AUCall (IM, individual mice) was 1050.1 and 801.322 and 1354.01 and 1070.85 and 1055.33 and 1188.66 and 1432.45 and 925.896 and the AUClast (IM, individual mice) was 1050.1 and 801.322 and 1354.01 and 1070.85 and 1055.33 and 1188.66 and 1432.45 and 925.896. For the same compound, the AUMCINF_obs (IM, individual mice) was 3193.81 and 1900.71 and 3591.01 and 2771.66 and 3099.57 and 2821.33 and 3581.57 and 4169.2, the AUMCINF_pred (IM, individual mice) was 3190.21 and 1900.74 and 3590.96 and 2771.26 and 3098.18 and 2820.84 and 3581.6 and 4133.86 and the AUMC_%Extrap_obs (IM, individual mice) was 19.0405% and 2.9249% and 7.9241% and 12.3927% and 10.57% and 8.8194% and 7.6827% and 51.3426%. The AUMC_%Extrap_pred (IM, individual mice) was 18.949% and 2.9266% and 7.9228% and 12.3802% and 10.53% and 8.8035% and 7.6834% and 50.9267%, the AUMClast (IM, individual mice) was 2585.7 and 1845.12 and 3306.46 and 2428.17 and 2771.94 and 2572.51 and 3306.41 and 2028.62 and the Cl_F_obs (IM, individual mice) was 9192.03 and 0.0124 and 0.0073 and 0.0092 and 0.0093 and 0.0083 and 0.0069. For the same compound, the Cl_F_pred (IM, individual mice) was 0.0124 and 0.0073 and 0.0092 and 0.0093 and 0.0083 and 0.0069, the Clast (IM, individual mice) was 9.25 and 1.85 and 6.51 and 5.87 and 6.37 and 4.83 and 6.04 and 9.7 and the Cmax (IM, individual mice) was 520 and 469 and 730 and 550 and 410 and 609 and 667 and 531. For the same compound, the HL_Lambda_z (IM, individual mice) was 2.8327 and 1.4744 and 2.0296 and 2.5798 and 2.3224 and 2.3255 and 2.1008 and 6.9461, the Tlag (IM, individual mice) was 0 and the Tlast (IM, individual mice) was 12. For the same compound, the Lambda_z (IM, individual mice, non-compartmental analysis) was 0.2447 and 0.4701 and 0.3415 and 0.2687 and 0.2985 and 0.2981 and 0.3299 and 0.0998, the MRTINF_obs (IM, individual mice, in h) was 2.9358 and 2.3604 and 2.6153 and 2.5365 and 2.8788 and 2.3416 and 2.4688 and 4.0751 and the MRTINF_pred (IM, individual mice, in h) was 2.9331 and 2.3604 and 2.6153 and 2.5362 and 2.8778 and 2.3413 and 2.4688 and 4.0469. The MRTlast (IM, individual mice, in h) was 2.4623 and 2.3026 and 2.442 and 2.2675 and 2.6266 and 2.1642 and 2.3082 and 2.191, the Tmax (IM, individual mice, in h) was 0.25 and 0.33 and 0.5 and 0.17 and 0.75 and the “plasma concentration, AV” value (IV, 0.083h) was 4.976 ng/mL.
